This passage reports IC50 results from paper PMC10455244, “Alpha-Mangostin: A Potent Inhibitor of TRPV3 and Pro-Inflammatory Cytokine Secretion in Keratinocytes” (International Journal of Molecular Sciences, 2023).

SMILES strings stand for the structures.

As a reminder, the IC50 is the concentration at which inhibition is half-maximal.

In this assay the target is T1, TRPV3 (G573S) (Homo sapiens, UniProt Q8NET8, G573S).
T1 construct: host or cells: HEK 293T (transient transfection, pEGFP-N1 co-transfected as a marker)
T1 sequence (Q8NET8 1-790 G573S): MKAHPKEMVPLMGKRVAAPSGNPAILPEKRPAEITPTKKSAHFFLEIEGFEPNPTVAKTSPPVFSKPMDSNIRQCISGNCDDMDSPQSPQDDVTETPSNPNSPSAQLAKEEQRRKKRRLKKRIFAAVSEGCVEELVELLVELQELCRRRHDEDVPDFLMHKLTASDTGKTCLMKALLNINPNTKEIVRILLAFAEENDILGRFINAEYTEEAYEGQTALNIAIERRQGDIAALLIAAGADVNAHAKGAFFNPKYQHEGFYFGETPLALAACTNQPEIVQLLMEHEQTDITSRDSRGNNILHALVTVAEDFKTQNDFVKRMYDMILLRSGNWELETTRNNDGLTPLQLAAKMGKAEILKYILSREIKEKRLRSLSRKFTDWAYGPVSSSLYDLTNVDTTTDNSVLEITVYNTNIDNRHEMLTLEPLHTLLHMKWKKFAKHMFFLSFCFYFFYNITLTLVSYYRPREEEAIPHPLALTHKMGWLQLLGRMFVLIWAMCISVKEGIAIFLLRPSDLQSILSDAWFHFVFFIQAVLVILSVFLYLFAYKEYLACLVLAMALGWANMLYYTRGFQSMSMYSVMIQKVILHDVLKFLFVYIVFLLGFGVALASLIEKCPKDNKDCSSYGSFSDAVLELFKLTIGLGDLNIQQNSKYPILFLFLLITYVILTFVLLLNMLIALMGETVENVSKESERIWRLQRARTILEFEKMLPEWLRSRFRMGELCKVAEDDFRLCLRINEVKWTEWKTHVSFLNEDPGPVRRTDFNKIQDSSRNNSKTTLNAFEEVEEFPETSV
The assay is described as follows: Whole-cell patch-clamp, spontaneous current of TRPV3 G573S mutant in HEK 293T cells. Type of assay: cell-based. To be noted: −100 mV, read-out: IC50, inhibition of spontaneous current of TRPV3 G573S mutant. As to the method: For electrophysiology recording and calcium measurement, 10 µM 74a (a TRPV3 inhibitor) was added about 6 h after transfection to inhibit channel activities and prevent cell death. First, the electrophysiology activities of the mutations were recorded using a whole-cell patch-clamp. Our data presented spontaneous TRPV3 currents when −100 mV to 100 mV ramp pulses were applied, which dramatically declined with the addition of 1 µM alpha-mangostin (Figure 4A).
Figure 4 Alpha-mangostin inhibited the activity of hyperactive TRPV3 mutant channels and rescued mutation-induced cell death. (A) Alpha-mangostin inhibited the channel current in representative TRPV3 (G573S)- and TRPV3 (G573C)-expressing HEK 293T cells. […] Currents were normalized to the response at −100 mV before adding alpha-mangostin. (C) Alpha-mangostin inhibited TRPV3-mediated intracellular calcium increase in TRPV3 (G573S)-expressing HEK 293T cells. […] The bar graph on the right summarizes the change in the intracellular calcium rise inhibited by alpha-mangostin. […]
In the whole-cell configuration, voltage ramps from −100 to +100 mV over 1 s were applied every 20 s and the holding potential was set at 0 mV. Sampling at 10 kHz and low-pass filtering at 5 kHz (w-c) were applied for all recorded currents. Recorded data were analyzed using Clampfit ver. […]
For orientation: In patch-clamp work, channel activity is measured electrically.

Consider `COc1c(O)cc2oc3cc(O)c(CC=C(C)C)c(O)c3c(=O)c2c1CC=C(C)C` [Alpha-mangostin], for which the 50% inhibitory concentration (IC50) is 2.04 ± 0.64 µM.
